Where “and” joins values, the source holds several entries; their conditions need not be identical. Equal entries are not always repeated. Records with an inconclusive call do not appear.
Test system: MX-1 breast xenograft, intrarenal, nude mice, tumor weight
Assay: NCI In Vivo Anticancer Drug Screen. Data for tumor model Human Mammary Carcinoma MX-1 Xenograft (intrarenal inoculation) in NU/NU BALB/C (nude) mice
Settings: endpoint: mean tumor weight change, higher = larger tumour
Outline: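 T/C readout: treated-group measurement over vehicle-control measurement, using tumor size or survival in tumor-bearing mice.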

[1] = dose: 150.0 mg/kg/injection, schedule: Q04DX003 (ip), vehicle: saline with Tween-80
[2] = dose: 150.0 mg/kg/injection, schedule: Q04DX003 (ip), vehicle: saline
[3] = dose: 300.0 mg/kg/injection, schedule: Q04DX003 (ip), vehicle: saline
[4] = dose: 100.0 mg/kg/injection, schedule: Q01DX010 (sc), vehicle: Klucel (hydroxypropylcellulose) (HPC)
[5] = dose: 200.0 mg/kg/injection, schedule: Q01DX010 (sc), vehicle: Klucel (hydroxypropylcellulose) (HPC)

CCN(CC)CC(=O)O[C@]1(CC)C(=O)OCc2c1cc1n(c2=O)Cc2cc3ccccc3nc2-1
T/C (dose: 2.0 mg/kg/injection, schedule: Q04DX003 (ip), vehicle: other): 35 % of control
T/C (dose: 2.0 mg/kg/injection, schedule: Q04DX003 (ip), vehicle: water): 29 % of control
T/C (dose: 4.0 mg/kg/injection, schedule: Q04DX003 (ip), vehicle: other): 19 % of control
T/C (dose: 4.0 mg/kg/injection, schedule: Q04DX003 (ip), vehicle: water): 13 % of control
T/C (dose: 8.0 mg/kg/injection, schedule: Q04DX003 (ip), vehicle: other): 1 % of control
T/C (dose: 16.0 mg/kg/injection, schedule: Q04DX003 (ip), vehicle: other): -56 % of control
T/C (dose: 16.0 mg/kg/injection, schedule: Q04DX003 (ip), vehicle: water): -100 % of control

N=C(N)c1ccc(N=NNc2ccc(C(=N)N)cc2)cc1
T/C [1]: 83 % of control

CN(CN1C(=O)CCC1=O)CN1C(=O)CCC1=O
T/C [2]: 91 % of control
T/C [3]: 61 % of control

O=C(Nc1cc(Cl)ccc1C(=O)O)c1cccc(C[n+]2ccccc2)c1
T/C [1]: 109 % of control
T/C (dose: 300.0 mg/kg/injection, schedule: Q04DX003 (ip), vehicle: saline with Tween-80): 109 % of control
T/C (dose: 600.0 mg/kg/injection, schedule: Q04DX003 (ip), vehicle: saline with Tween-80): 82 % of control

CN=C(N)c1ccc(N=C(N)c2ccc(C(N)=Nc3ccc(C(N)=NC)cc3)cc2)cc1
T/C (dose: 15.0 mg/kg/injection, schedule: Q04DX003 (ip), vehicle: saline): 96 % of control
T/C (dose: 30.0 mg/kg/injection, schedule: Q04DX003 (ip), vehicle: saline): 118 % of control

CS(=O)(=O)OCCN(CCOS(C)(=O)=O)c1ccc(C=Nc2ccc(-c3csc(COc4ccccc4)n3)cc2)cc1
T/C (dose: 50.0 mg/kg/injection, schedule: Q01DX010 (sc), vehicle: Klucel (hydroxypropylcellulose) (HPC)): 13 % of control
T/C [4]: -6 % of control
T/C (dose: 100.0 mg/kg/injection, schedule: Q04DX003 (ip), vehicle: Klucel (hydroxypropylcellulose) (HPC)): 24 % of control
T/C (dose: 100.0 mg/kg/injection, schedule: Q04DX003 (sc), vehicle: Klucel (hydroxypropylcellulose) (HPC)): 32 % of control
T/C [5]: -61 % of control
T/C (dose: 200.0 mg/kg/injection, schedule: Q04DX003 (ip), vehicle: Klucel (hydroxypropylcellulose) (HPC)): 3 % of control
T/C (dose: 200.0 mg/kg/injection, schedule: Q04DX003 (sc), vehicle: Klucel (hydroxypropylcellulose) (HPC)): 18 % of control

COC(=O)C1C2CCCN2OC1(C)CO (configuration not stated)
T/C (dose: 30.0 mg/kg/injection, schedule: Q01DX001 (ip), vehicle: saline): 224 % of control
T/C (dose: 240.0 mg/kg/injection, schedule: Q01DX001 (ip), vehicle: saline): 118 % of control
T/C (dose: 480.0 mg/kg/injection, schedule: Q01DX001 (ip), vehicle: saline): 80 % of control

NCCCNCCCCNC(=O)C(O)NC(=O)CCCCCCN=C(N)N (configuration not stated)
T/C (dose: 25.0 mg/kg/injection, schedule: Q04DX003 (ip), vehicle: saline with Tween-80): 69 % of control

COc1cc(C2=NCCc3cc4c(cc32)OCO4)cc(OC)c1OC
T/C (dose: 75.0 mg/kg/injection, schedule: Q04DX003 (ip), vehicle: saline + alcohol): 116 % of control
T/C (dose: 150.0 mg/kg/injection, schedule: Q04DX003 (ip), vehicle: saline + alcohol): 99 % of control

COc1cccc2c1C(=O)c1c(O)c3c(c(O)c1C2=O)C[C@](O)(C(=O)CO)CC3OC1CC(N)C(OC2CCCCO2)C(C)O1 (some centres not stated)
T/C (dose: 7.5 mg/kg/injection, schedule: Q04DX003 (ip), vehicle: water): 21 % of control

C=Cc1cc(OC)c2c(c1)c(=O)oc1c2cc(OC)c2c(O)ccc(C3OC(C(C)O)C(O)C3O)c21 (configuration not stated)
T/C (dose: 37.5 mg/kg/injection, schedule: Q04DX003 (ip), vehicle: Klucel (hydroxypropylcellulose) (HPC)): 91 % of control
T/C (dose: 75.0 mg/kg/injection, schedule: Q04DX003 (ip), vehicle: Klucel (hydroxypropylcellulose) (HPC)): 51 % of control and 70 % of control
T/C (dose: 300.0 mg/kg/injection, schedule: Q04DX003 (ip), vehicle: Klucel (hydroxypropylcellulose) (HPC)): 28 % of control and 29 % of control

COc1ccc2c(c1)n([O-])c1ccccc1[n+]2=O
T/C (dose: 50.0 mg/kg/injection, schedule: Q04DX003 (ip), vehicle: saline with Tween-80): 40 % of control
T/C (dose: 100.0 mg/kg/injection, schedule: Q04DX003 (ip), vehicle: saline with Tween-80): 48 % of control
T/C (dose: 200.0 mg/kg/injection, schedule: Q04DX003 (ip), vehicle: saline with Tween-80): 36 % of control

O=C/C(Cl)=C(/Cl)C(=O)O
T/C (dose: 10.0 mg/kg/injection, schedule: Q01DX010 (sc), vehicle: saline with Tween-80): 87 % of control
T/C (dose: 20.0 mg/kg/injection, schedule: Q01DX010 (sc), vehicle: saline with Tween-80): 36 % of control
T/C (dose: 40.0 mg/kg/injection, schedule: Q01DX010 (sc), vehicle: saline with Tween-80): 41 % of control

Oc1cc(O)cc(/C=C/c2ccc(O)c(O)c2)c1
T/C (dose: 25.0 mg/kg/injection, schedule: Q04DX003 (ip), vehicle: DMSO): 90 % of control
T/C (dose: 37.5 mg/kg/injection, schedule: Q04DX003 (ip), vehicle: DMSO): 123 % of control
T/C (dose: 50.0 mg/kg/injection, schedule: Q04DX003 (ip), vehicle: DMSO): 69 % of control
T/C (dose: 75.0 mg/kg/injection, schedule: Q04DX003 (ip), vehicle: DMSO): 71 % of control
T/C (dose: 100.0 mg/kg/injection, schedule: Q04DX003 (ip), vehicle: DMSO): 48 % of control
T/C (dose: 150.0 mg/kg/injection, schedule: Q04DX003 (ip), vehicle: DMSO): 67 % of control

COc1cc(C(C)c2cc3c(cc2OCCO)OCO3)cc(OC)c1OC (configuration not stated)
T/C [2]: 69 % of control
T/C [3]: 65 % of control
T/C (dose: 600.0 mg/kg/injection, schedule: Q04DX003 (ip), vehicle: saline): 21 % of control

CC(C)CCC(=O)c1ccoc1
T/C (dose: 0.75 mg/kg/injection, schedule: Q01DX010 (ip), vehicle: saline with Tween-80): 101 % of control
T/C (dose: 1.5 mg/kg/injection, schedule: Q01DX010 (ip), vehicle: saline with Tween-80): 103 % of control
T/C (dose: 3.0 mg/kg/injection, schedule: Q01DX010 (ip), vehicle: saline with Tween-80): 84 % of control

C/C(=N\NC(=S)N1CCN(c2ccccn2)CC1)c1ccccn1
T/C (dose: 75.0 mg/kg/injection, schedule: Q04DX003 (sc), vehicle: water): 104 % of control

CNNCc1ccc(C(=O)NC(C)C)cc1
T/C (dose: 50.0 mg/kg/injection, schedule: Q01DX010 (sc), vehicle: saline): 97 % of control
T/C (dose: 100.0 mg/kg/injection, schedule: Q01DX010 (sc), vehicle: saline): 70 % of control
T/C (dose: 200.0 mg/kg/injection, schedule: Q01DX010 (sc), vehicle: saline): 45 % of control
T/C (dose: 400.0 mg/kg/injection, schedule: Q01DX010 (sc), vehicle: saline): 4 % of control

N/C(=N\O)c1cn(C2OC(CO)C(O)C2O)c2ncnc(N)c12 (configuration not stated)
T/C (dose: 5.0 mg/kg/injection, schedule: Q04DX003 (sc), vehicle: Klucel (hydroxypropylcellulose) (HPC)): 91 % of control
T/C (dose: 10.0 mg/kg/injection, schedule: Q04DX003 (sc), vehicle: Klucel (hydroxypropylcellulose) (HPC)): 70 % of control

COc1ccc(N=N/N=c2\sc3cc(OC)ccc3n2C)cc1
T/C (dose: 30.0 mg/kg/injection, schedule: Q04DX003 (ip), vehicle: saline with Tween-80): 68 % of control
T/C (dose: 60.0 mg/kg/injection, schedule: Q04DX003 (ip), vehicle: saline with Tween-80): 87 % of control
T/C (dose: 120.0 mg/kg/injection, schedule: Q04DX003 (ip), vehicle: saline with Tween-80): 65 % of control
T/C (dose: 240.0 mg/kg/injection, schedule: Q04DX003 (ip), vehicle: saline with Tween-80): 62 % of control

NC(=O)CCC(N)C(=O)O (configuration not stated)
T/C (dose: 150.0 mg/kg/injection, schedule: Q04DX003 (ip), vehicle: suspension in saline): 91 % of control
T/C (dose: 300.0 mg/kg/injection, schedule: Q04DX003 (ip), vehicle: suspension in saline): 102 % of control
T/C (dose: 600.0 mg/kg/injection, schedule: Q04DX003 (ip), vehicle: suspension in saline): 76 % of control
T/C (dose: 1200.0 mg/kg/injection, schedule: Q04DX003 (ip), vehicle: suspension in saline): 87 % of control

COc1cc2c(c(OC)c1OC)-c1ccc(OC)c(=O)cc1[C@@H](NC(=O)CCl)CC2
T/C (dose: 0.5 mg/kg/injection, schedule: Q04DX003 (sc), vehicle: saline with Tween-80): 87 % of control
T/C (dose: 1.0 mg/kg/injection, schedule: Q04DX003 (sc), vehicle: saline with Tween-80): 43 % of control
T/C (dose: 2.0 mg/kg/injection, schedule: Q04DX003 (sc), vehicle: saline with Tween-80): 8 % of control
T/C (dose: 4.0 mg/kg/injection, schedule: Q04DX003 (sc), vehicle: saline with Tween-80): 1 % of control

O=C(NO)c1ccccc1
T/C [4]: 89 % of control
T/C [5]: 61 % of control
T/C (dose: 400.0 mg/kg/injection, schedule: Q01DX010 (sc), vehicle: Klucel (hydroxypropylcellulose) (HPC)): 21 % of control
